{"source": "patent US10898576B2", "about": "“Glucocorticoid combined with polyethylene glycol-modified interleukin 2 for treating respiratory disease” (priority 2016, dated 2021)", "key": {"[1]": {"system": "asthma mice", "test": "Lung histopathology (H&E, PAS) of OVA asthma mice", "assay_type": "in vivo, BALB/c mice", "conditions": "same dose of the drug alone as in the combination, atomization days 12-14", "protocol": "(§1) Female BALB/c mice aged 6-8 weeks (purchased from SLAC Laboratory Animal Co., Ltd.) were used for modeling of asthma, which were sensitized by intraperitoneal injection with 100 μg of ovalbumin (OVA) (Sigma) and 2 mg of Al(OH)3 for injection (Sigma) on days 1 and 8, and challenged by daily nasal instillation with 20 μl of 2% OVA on days 9-14 (FIG. 1A).\n(§2) The asthma mice model of Example 1 were subjected to drug intervention while challenge by nasal instillation on days 12-14. The specific administration method was that the mice were anesthetized with 7% chloral hydrate (Sangon Biotech (Shanghai) Co., Ltd.) and then administrated quantitatively through atomization in the lung using an atomization metered dosing device (MicroSprayer®—Model IA-1B), and the administration volume was fixed at 25 ul/mouse, and the administration dose was adjusted by the level of concentration. On the 15th day, relevant indicators were detected.\n(§3) Lung histopathology. The lungs of mice were fixed in 10% formalin, embedded in paraffin, sectioned, stained with H&E (Merck & Co, Inc) and PAS (Sigma), respectively, and examined under a 20-fold microscope."}, "[2]": {"system": "Treg in bronchoalveolar lavage fluid", "test": "Flow cytometry of Treg in bronchoalveolar lavage fluid of OVA asthma mice after atomization in the lung", "assay_type": "in vivo, BALB/c mice", "conditions": "same dose of the drug alone as in the combination, atomization days 12-14", "protocol": "as §1, §2\nCollection of bronchoalveolar lavage fluid. The mice were sacrificed by cervical dislocation. […] The IFN-γ, IL-4, IL-10, and IL-13 in the supernatant were measured by using commercial ELISA kit (R&D Corp).\nFlow cytometry. […] All results were analyzed by FlowJo software (Treestar)."}, "[3]": {"system": "CTLL-2 cell", "test": "CTLL-2 cell assay of IL-2 activity", "assay_type": "cell-based", "conditions": "compared with IL-2 working standard"}, "[4]": {"system": "asthma mice", "test": "Example 6: asthma mice challenged days 9-18, local atomization vs intraperitoneal Dex, lung function and pathology", "assay_type": "in vivo, BALB/c mice", "conditions": "40 μg Dex per mouse", "protocol": "as §3\nLung function measurement. After being anesthetized with 2% pentobarbital sodium, the mice were subjected to respiratory provocation test with methacholine (Sigma) at 3.125 mg/ml, 6.25 mg/ml, and 12.5 mg/ml prepared in PBS, respectively. The airway resistance curve was plotted and analyzed (FinePoint NAM). The assay was performed using the BUXCO Airway Resistance and Lung Compliance System (BUXCO Electronics).\nModeling of asthma model mice and administration. The same mice as in Example 1 were used for asthma modeling, which were sensitized by intraperitoneal injection with 100 μg of ovalbumin (OVA) (Sigma) and 2 mg of Al(OH)3 for injection (Sigma) on days 1 and 8, and challenged by daily nasal instillation with 20 μl of 2% OVA on days 9-18. According to the purpose of the experiment, 40 μg Dex was intraperitoneally injected on days 12-18, 14-18 and 16-18, or 25,000 IU IL-2(PEG)+5 μg Bud was administered by atomization on days 16-18, respectively.\nAdministration and histopathological analysis were performed in the same manner as in Example 2, and lung function test was performed in the same manner as in Example 3. […]"}}, "data": [{"compound": "IL-2: human-derived IL-2, sequence SEQ ID NO. 1 (Xiamen Amoytop Biotech Co., Ltd.)", "values": [{"measurement": "pathological manifestations of lung inflammation, single drug alone", "setting": "[1]", "value": "could not be achieved"}, {"measurement": "Treg in bronchoalveolar lavage fluid, single drug alone", "setting": "[2]", "value": "could not be achieved"}]}, {"compound": "PEG-modified IL-2: IL-2 modified with a non-branched PEG of a molecular weight of 20 kD, main site N-terminus", "values": [{"measurement": "activity", "setting": "[3]", "value": "comparable to that of the IL-2 working standard"}]}, {"compound": "C[C@@H]1C[C@H]2[C@@H]3CCC4=CC(=O)C=C[C@]4(C)[C@@]3(F)[C@@H](O)C[C@]2(C)[C@@]1(O)C(=O)CO", "note": "[Dex, dexamethasone]", "values": [{"measurement": "duration of intraperitoneal injection required to exert a therapeutic effect on asthma", "setting": "[4]", "value": "at least 7 consecutive days"}]}]}
